# In patent US6913900B2, “Plasma prekallikrein activation and kallikrein production assay” (Nippon Zoki Pharmaceutical Co., Ltd., priority 2001, dated 2005):
# “Also recorded” adds a separate entry of the source. Where two headings read alike, the source gives them in different places.
# Columns and labels:
# [1] = test system: prekallikrein activating factor (PK activation); assay: Inhibition profile of PK activation (prekallikrein activation assay, kallikrein substrate S-2302, O.D. 405 nm); assay type: biochemical, human
# Excerpt: In embodiments of the invention the reaction time may be fixed or “set.” The reaction time can be “set” by stopping the production of kallikrein, for example, by adding a prekallikrein activation inhibitor to the system of the present invention after a desired reaction time. Also, by adding a coloring or fluorescent synthetic substrate to the reaction system from the start or beginning, the produced amount of kallikrein (coloring or fluorescent intensity) may be observed at different lapses of time. […] When the reaction is stopped, the produced kallikrein can be quantitatively determined using an enzymatic activity of kallikrein as a target, for example, by applying a substrate to kallikrein.
# When the reaction is stopped, the produced plasma kallikrein can be determined using an enzymatic activity of the plasma kallikrein as a target by utilizing a substrate to the plasma kallikrein.
# (§1) Assays were performed in HEPES buffered saline (HBS) (10 mM Hepes, 137 mM NaCl, 4 mM KCl, 11 mM D-glucose, and 0.5 mg/ml RIA grade bovine serum albumin, pH 7.4), with a kallikrein specific substrate (0.6 mM S-2302). For assays using the cell-free system, 96 well disposable polystyrene microtiter plates (Dynatech Laboratories, Chantilly, Va.) were used. These microtiter plates were pretreated with 1% polyethylene glycol (Aquacide III, Calbiochem, Calif.) in HBS for two hours to prevent adsorption of proteins to polystyrene. The absorbance (O.D. at 405 nm or optical density at 405 nm) was monitored at room temperature on a Molecular Devices (Sunnyvale, Calif.) THERMOmax microplate reader. Just prior to the assay all the proteins were treated with 2.0 mM (4-amidinophenyl)methanesulfonyl fluoride (APMSF) for 15 minutes at pH 5.5, after which they were diluted 1:100 with HBS and incubated for 45 minutes to allow for the decomposition of any unreacted APMSF at the neutral pH. The proteins were treated with APMSF before use and were inactivated for the sake of safety.
# [2] = test system: HSP 90-dependent prekallikrein activation; assay: HSP 90-dependent prekallikrein activation (HSP 90, HK, zinc, PK, S-2302); assay type: biochemical, human; conditions: purified HSP 90 activator, HK and zinc present
# Procedure: as §1
# HSP 90 was confirmed as a prekallikrein activator, which was functionally indistinguishable from the cytosolic extract (FIG. 2). A HUVEC activator system was functionally effective as well (FIG. 1). […] The incubation mixture used is as follows: […]
# [3] = test system: activation of prekallikrein in the presence of phosphate and zinc ions; assay: Prekallikrein activation by phosphate ion (PBS, zinc, HK, PK, S-2302); assay type: biochemical; conditions: phosphate ion activator, no FXIIa, HUVEC or HSP 90
# Procedure: as §1, with “safety. […]” for “safety.”
molecule,measurement,setting,value
Aprotinin,inhibition of the prekallikrein activator in this system (in words),[1],good inhibitors
same,% inhibition of PK activation,[1]; inhibitor concentration 100 μM,96.4%
N[C@@H](CS)C(=O)O [Cysteine],% inhibition of PK activation,[1]; inhibitor concentration 10 mM,59.6%
[Cl][Hg][Cl] [HgCl2],inhibition of the prekallikrein activator in this system (in words),[1],good inhibitors
same,% inhibition of PK activation,[1]; inhibitor concentration 1 mM,98%
OCCS [Mercaptoethanol],inhibition of the prekallikrein activator in this system (in words),[1],good inhibitors
same,% inhibition of PK activation,[1]; inhibitor concentration 5%,85.5%
CC(C)Cc1ccc(C(C)C(=O)O)cc1 (stereo not shown) [Ibuprofen],inhibition of HSP 90-dependent prekallikrein activation (in words),[2],inhibited by Ibuprofen dose-dependently
same,inhibition of prekallikrein activation in the presence of phosphate and zinc ions (in words),[3],inhibited by Ibuprofen dose-dependently
O=C(O)CN(CCN(CC(=O)O)CC(=O)O)CC(=O)O [EDTA],% inhibition of PK activation,[1],85.4%
same,inhibition of the prekallikrein activator in this system (in words),[1],good inhibitors
C[C@H](CS)C(=O)N1CCC[C@H]1C(=O)O [Captopril],inhibition of the prekallikrein activator in this system (in words),[1],good inhibitors
same,% inhibition of PK activation,[1]; inhibitor concentration 10 mM,97.9%
Cystatin,% inhibition of PK activation,[1]; inhibitor concentration 10 μg/ml,4.5%
Corn Trypsin Inhibitor,% inhibition of PK activation,[1]; inhibitor concentration 10 μM,94.3%
same,inhibition of the prekallikrein activator in this system (in words),[1]; listed as CTI,good inhibitors; also recorded: could be inhibited by CTI
same,inhibition of HSP 90-dependent prekallikrein activation (in words),[2],inhibited by CTI
NC(=O)CI [Iodoacetamide],% inhibition of PK activation,[1]; inhibitor concentration 10 mM,7%
N[C@@H](CCC(=O)N[C@@H](CS)C(=O)NCC(=O)O)C(=O)O [Glutathione],% inhibition of PK activation,[1]; inhibitor concentration 100 μM,18.6%
O[C@@H](CS)[C@@H](O)CS [DTT],% inhibition of PK activation,[1]; inhibitor concentration 10 mM,69.1%
"SBTI: soybean trypsin inhibitor (SBTI) (protein, UniProt P01070 25-205, looked up) Trypsin inhibitor A: DFVLDNEGNPLENGGTYYILSDITAFGGIRAAPTGNERCPLTVVQSRNELDKGIGTIISSPYRIRFIAEGHPLSLKFDSFAVIMLCVGIPTEWSVVEDLPEGPAVKIGENKDAMDGWFRLERVSDDEFNNYKLVFCPQQAEDDKCGDIGISIDHDDGTRRLVVSKNKPLVVQFQKLDKESL",inhibition of the prekallikrein activator in this system (in words),[1],good inhibitors
same,% inhibition of PK activation,[1]; inhibitor concentration 50 μg/ml,98.6%
